Source: patent US6221906A, “Platinum complex conjugated to cyclotriphosphazene, its preparation, and anticancer agent comprising the same” (Korea Institute of Science and Technology, priority 1999, dated 2001)

Columns and labels:
[1] = tested on: leukemia L1210 cells; assay: anticancer activity test against mouse leukemia L1210 cells implanted in BDF1 mice; type: in vivo; settings: intra-peritoneal, days 1, 5 and 9; for Number of survival after 60 days: of 8 mice
[2] = literature value; cited from earlier work
[3] = tested on: ICR mouse; assay: pilot acute toxicity test, single tail vein injection (LD50); type: in vivo; settings: for Death rate: 2 animals; for deaths on day 0 after administration: of 2 animals
Method: A pilot acute toxicity test was performed for the compound (KI-60606) described in Example 8 of the present invention by intravenous injection.
(2) carrier: physiological saline for injection
(1) animal model: ICR mouse
(2) age of the animal: 4 weeks old when delivered, 5 weeks old when the drug was administered
(3) sex and number of animals: 12 males and 12 females
(4) breeding condition: temperature: 23 3C. relative humidity: 50 10% light intensity: 150-300 Lux
3. Number and method of administration: single tail vein injection
5. Observation categories: general symptoms, symptoms of dead animals, body weight up to seventh day after administration, autopsy finding.

[4] = tested on: Hartley guinea pigs; assay: guinea pig anaphylaxis test; type: in vivo
Method: […] The systemic symptoms were observed 30 minutes after the injection. […] However, only 2 animals administered with oligomeric platinum complex of the present invention (KI 60606: The compound in Example 8 of the present invention) had severe symptoms but none died.

[5] = male or female mice, 500 mg/kg or more
[6] = antigen 1 mg/kg, induced antigen 5 mg/kg, 4 animals
[7] = antigen 5 mg/kg, induced antigen 5 mg/kg, 4 animals

O=C1[O][Pt-2]2([NH2+]C3CCCCC3[NH2+]2)[O]C(=O)C1NP1(NC2C(=O)[O][Pt-2]3([NH2+]C4CCCCC4[NH2+]3)[O]C2=O)=NP(NC2C(=O)[O][Pt-2]3([NH2+]C4CCCCC4[NH2+]3)[O]C2=O)(NC2C(=O)[O][Pt-2]3([NH2+]C4CCCCC4[NH2+]3)[O]C2=O)=NP(NC2C(=O)[O][Pt-2]3([NH2+]C4CCCCC4[NH2+]3)[O]C2=O)(NC2C(=O)[O][Pt-2]3([NH2+]C4CCCCC4[NH2+]3)[O]C2=O)=N1 (racemic) [Example 16, [NP(Am·Pt(dach)2]3]
Increased life span (ILS) ([1]; 30 mg/kg): 222.1%
Increased life span (ILS) ([1]; 60 mg/kg): Toxic

N.N.O=C([O-])C1(C(=O)[O-])CCC1.[Pt+2] [Carboplatin, cis-(NH3)2 Pt(CBDCA), reference compound]
Increased life span (ILS) ([1]; 40 mg/kg): 80%
LD50 [2]: 180 mg/kg

N.N.[Cl][Pt][Cl] [Cisplatin, cis-(NH3)2 PtCl2, reference compound]
Increased life span (ILS) ([1]; 4 mg/kg): 60%

O=C1CC(NP2(NC3CC(=O)[O][Pt-2]4([NH2+]C5CCCCC5[NH2+]4)[O]C3=O)=NP(NC3CC(=O)[O][Pt-2]4([NH2+]C5CCCCC5[NH2+]4)[O]C3=O)(NC3CC(=O)[O][Pt-2]4([NH2+]C5CCCCC5[NH2+]4)[O]C3=O)=NP(NC3CC(=O)[O][Pt-2]4([NH2+]C5CCCCC5[NH2+]4)[O]C3=O)(NC3CC(=O)[O][Pt-2]4([NH2+]C5CCCCC5[NH2+]4)[O]C3=O)=N2)C(=O)[O][Pt-2]2([NH2+]C3CCCCC3[NH2+]2)[O]1 [Example 1, [NP(L-Asp·Pt(dach))2]3]
Increased life span (ILS) ([1]; 40 mg/kg): > 243.8%
Number of survival after 60 days ([1]; 40 mg/kg): 1/8
Increased life span (ILS) ([1]; 60 mg/kg): > 448.8%
Number of survival after 60 days ([1]; 60 mg/kg): 4/8

CC1(C)C[NH2+][Pt-2]2([NH2+]C1)[O]C(=O)C[C@H](NP1(N[C@H]3CC(=O)[O][Pt-2]4([NH2+]CC(C)(C)C[NH2+]4)[O]C3=O)=NP(N[C@H]3CC(=O)[O][Pt-2]4([NH2+]CC(C)(C)C[NH2+]4)[O]C3=O)(N[C@H]3CC(=O)[O][Pt-2]4([NH2+]CC(C)(C)C[NH2+]4)[O]C3=O)=NP(N[C@H]3CC(=O)[O][Pt-2]4([NH2+]CC(C)(C)C[NH2+]4)[O]C3=O)(N[C@H]3CC(=O)[O][Pt-2]4([NH2+]CC(C)(C)C[NH2+]4)[O]C3=O)=N1)C(=O)[O]2 [Example 2, [NP(L-Asp·Pt(dmpda))2]3]
Increased life span (ILS) ([1]; 30 mg/kg): 165.0%
Increased life span (ILS) ([1]; 60 mg/kg): 147.9%

O=C1C[C@H](NP2(N[C@H]3CC(=O)[O][Pt-2]4([NH2+]CC[NH2+]4)[O]C3=O)=NP(N[C@H]3CC(=O)[O][Pt-2]4([NH2+]CC[NH2+]4)[O]C3=O)(N[C@H]3CC(=O)[O][Pt-2]4([NH2+]CC[NH2+]4)[O]C3=O)=NP(N[C@H]3CC(=O)[O][Pt-2]4([NH2+]CC[NH2+]4)[O]C3=O)(N[C@H]3CC(=O)[O][Pt-2]4([NH2+]CC[NH2+]4)[O]C3=O)=N2)C(=O)[O][Pt-2]2([NH2+]CC[NH2+]2)[O]1 [Example 4, [NP(L-Asp·Pt(en))2]3]
Increased life span (ILS) ([1]; 30 mg/kg): 250.9%
Increased life span (ILS) ([1]; 60 mg/kg): Toxic

O=C1CCC(NP2(NC3CCC(=O)[O][Pt-2]4([NH2+]C5CCCCC5[NH2+]4)[O]C3=O)=NP(NC3CCC(=O)[O][Pt-2]4([NH2+]C5CCCCC5[NH2+]4)[O]C3=O)(NC3CCC(=O)[O][Pt-2]4([NH2+]C5CCCCC5[NH2+]4)[O]C3=O)=NP(NC3CCC(=O)[O][Pt-2]4([NH2+]C5CCCCC5[NH2+]4)[O]C3=O)(NC3CCC(=O)[O][Pt-2]4([NH2+]C5CCCCC5[NH2+]4)[O]C3=O)=N2)C(=O)[O][Pt-2]2([NH2+]C3CCCCC3[NH2+]2)[O]1 [Example 8, [NP(L-Glu·Pt(dach))2]3]
Main symptoms ([3]; 62.5-2000 mg/kg, single intravenous injection, ICR mice): prone positioning, gait disturbance, dyspnea and decrease in body weight
General symptoms of dead mice ([3]; 125 or 250 mg/kg): prone positioning and drooling
Estimated LD50 value ([3]; female ICR mice, single intravenous injection): 125 to 250 mg/kg
Death rate ([3]; female, 62.5 mg/kg): 0%
number of mice with decrease in body weight ([3]; female, 125 mg/kg): 2
Death rate ([3]; female, 125 mg/kg): 0%
Death rate ([3]; female, 250 mg/kg): 100%
deaths on day 0 after administration ([3]; female, 250 mg/kg): 2
Death rate ([3]; female, 500 mg/kg): 100%
deaths on day 0 after administration ([3]; female, 500 mg/kg): 2
Death rate ([3]; female, 1000 mg/kg): 100%
deaths on day 0 after administration ([3]; female, 1000 mg/kg): 2
Death rate ([3]; female, 2000 mg/kg): 100%
deaths on day 0 after administration ([3]; female, 2000 mg/kg): 2
Estimated LD50 value ([3]; male ICR mice, single intravenous injection): 125 mg/kg
General symptoms [3, 5]: prone positioning, gait disturbance and dyspnea
time of death after injection [3, 5]: 10 to 20 s
number of mice with decrease in body weight ([3]; male, 62.5 mg/kg): 1
Death rate ([3]; male, 62.5 mg/kg): 0%
Death rate ([3]; male, 125 mg/kg): 50%
deaths on day 0 after administration ([3]; male, 125 mg/kg): 1
Death rate ([3]; male, 250 mg/kg): 100%
deaths on day 0 after administration ([3]; male, 250 mg/kg): 2
Death rate ([3]; male, 500 mg/kg): 100%
deaths on day 0 after administration ([3]; male, 500 mg/kg): 2
Death rate ([3]; male, 1000 mg/kg): 100%
deaths on day 0 after administration ([3]; male, 1000 mg/kg): 2
Death rate ([3]; male, 2000 mg/kg): 100%
deaths on day 0 after administration ([3]; male, 2000 mg/kg): 2
autopsy finding ([3]; mice that died immediately and mice that survived): No particular autopsy finding was observed
General symptoms of live animals ([3]; one day after injection): did not have any particular symptoms
Increased life span (ILS) ([1]; 60 mg/kg): > 400%
Number of survival after 60 days ([1]; 60 mg/kg): 3/8
Increased life span (ILS) ([1]; 80 mg/kg): > 402.8%
Number of survival after 60 days ([1]; 80 mg/kg): 3/8
death in anaphylaxis test ([4]; all dose groups): none died
number of animals with severe symptoms ([4]; all dose groups): 2
number of animals with symptom [++] (severe) [4, 6]: 2
number of animals with symptom [+] (moderate) [4, 6]: 1
number of animals with symptom [±] (mild) [4, 6]: 1
number of animals with symptom [+] (moderate) [4, 7]: 1
number of animals with symptom [-] (asymptomatic) [4, 7]: 3
antigenicity compared with physiological saline ([4]; compared with physiological saline solution): antigenicity was even less

O=C1CC[C@H](NP2(N[C@H]3CCC(=O)[O][Pt-2]4([NH2+]CC[NH2+]4)[O]C3=O)=NP(N[C@H]3CCC(=O)[O][Pt-2]4([NH2+]CC[NH2+]4)[O]C3=O)(N[C@H]3CCC(=O)[O][Pt-2]4([NH2+]CC[NH2+]4)[O]C3=O)=NP(N[C@H]3CCC(=O)[O][Pt-2]4([NH2+]CC[NH2+]4)[O]C3=O)(N[C@H]3CCC(=O)[O][Pt-2]4([NH2+]CC[NH2+]4)[O]C3=O)=N2)C(=O)[O][Pt-2]2([NH2+]CC[NH2+]2)[O]1 [Example 13, [NP(L-Glu·Pt(en))2]3]
Increased life span (ILS) ([1]; 30 mg/kg): 277%
Increased life span (ILS) ([1]; 60 mg/kg): Toxic

O=C1[O][Pt-2]2([NH2+]CC[NH2+]2)[O]C(=O)C1NP1(NC2C(=O)[O][Pt-2]3([NH2+]CC[NH2+]3)[O]C2=O)=NP(NC2C(=O)[O][Pt-2]3([NH2+]CC[NH2+]3)[O]C2=O)(NC2C(=O)[O][Pt-2]3([NH2+]CC[NH2+]3)[O]C2=O)=NP(NC2C(=O)[O][Pt-2]3([NH2+]CC[NH2+]3)[O]C2=O)(NC2C(=O)[O][Pt-2]3([NH2+]CC[NH2+]3)[O]C2=O)=N1 (stereo not shown) [Example 18, [NP(Am·Pt(en))2]3]
Increased life span (ILS) ([1]; 30 mg/kg): > 400%
Number of survival after 60 days ([1]; 30 mg/kg): 3/8
Increased life span (ILS) ([1]; 60 mg/kg): Toxic

[NP(OH)(Glu.Pt(dach)]n [KI-30606, reference compound]
death due to anaphylaxis ([4]; all animals, 30 minutes after injection): died due to anaphylaxis
number of animals with symptom [+++] (death) ([4]; antigen 1 mg/kg, induced antigen 5 mg/kg, 5 animals): 5
number of animals with symptom [+++] (death) [4, 7]: 4
